Measured values as given in US20220152060A1, “PHYTOECDYSONES AND THE DERIVATIVES THEREOF FOR USE IN THE TREATMENT OF IMPAIRED LUNG FUNCTION” (BIOPHYTIS, priority 2019, published 2022).

Key:
[1] = test system: mdx mice; assay: piston ventilator (FlexiVent) forced oscillation measurement of pulmonary resistance, compliance and elastance; type: in vivo; conditions: 50 mg/kg/day oral
Procedure: Male mice C57BL/10ScSnJ (healthy mice denoted as “C57Black10” in the figures) and C57BL/10ScSn-Dmdmdx/J (murine model of Duchenne muscular dystrophy, denoted “mdx” in the figures) aged 12 weeks, have been used. The mice have been divided into three groups of 12 mice each: an untreated group of healthy control mice C57Black10, a group of untreated mdx mice (mdx) and a group of mice chronically treated with a dose of 50 mg/kg/day, orally in the drinking water. The respiratory function of all the mice has been evaluated by whole-body plethysmography before the start of the study, (D0) then at 30 days (D30) and 60 days (D60) after the start of the treatment. After two months of treatment, the respiratory function has been invasively evaluated, just before sacrifice of the animal, by piston ventilated controlled by a central control unit (commonly called “computer”), said ventilator using the forced oscillation technique, such as the device known by the name FlexiVent™, in order to determine more directly the mechanical parameters of the respiratory system. In order to determine more directly the mechanical parameters of the respiratory system and the impact of a chronic treatment over a period of two months by BIO101 (D60) on these parameters, the dynamic pulmonary resistance was measured using a piston ventilator system as previously described, in response to increasing doses of metacholine. The mice were anaesthetized and connected by an endotracheal cannula to the piston ventilator system. After the start of mechanical ventilation, each mouse received an intraperitoneal injection of 0.1 mL of a 10 mg/mL rocuronium bromide solution. The animal was ventilated at a respiratory rate of 150 respirations/minute and with a tidal volume of 10 mL/kg against a final positive expiratory pressure of 3 cm H2O. The respiratory mechanisms were evaluated using a forced oscillation maneuver with a duration of 1.2 seconds (2.5 Hz) and a 3-second wideband forced oscillation man oeuvre containing 13 primordial frequencies between 1 and 20.5 Hz. The resistance of the respiratory system (R) was calculated using a microcomputer type central processing unit connected to the piston ventilator system and comprising, in particular, software for performing said calculation. The two maneuvers were carried out alternately every 15 seconds after each nebulization with a metacholine aerosol, in order to measure the change in the response time of the bronchoconstriction induced by metacholine. The pulmonary resistance, compliance and elastance could thus be determined.

[2] = test system: mdx mice; assay: whole-body plethysmography of respiratory function in response to metacholine; type: in vivo
Procedure: Male mice C57BL/10ScSnJ (healthy mice denoted as “C57Black10” in the figures) and C57BL/10ScSn-Dmdmdx/J (murine model of Duchenne muscular dystrophy, denoted “mdx” in the figures) aged 12 weeks, have been used. The mice have been divided into three groups of 12 mice each: an untreated group of healthy control mice C57Black10, a group of untreated mdx mice (mdx) and a group of mice chronically treated with a dose of 50 mg/kg/day, orally in the drinking water. The respiratory function of all the mice has been evaluated by whole-body plethysmography before the start of the study, (D0) then at 30 days (D30) and 60 days (D60) after the start of the treatment. After two months of treatment, the respiratory function has been invasively evaluated, just before sacrifice of the animal, by piston ventilated controlled by a central control unit (commonly called “computer”), said ventilator using the forced oscillation technique, such as the device known by the name FlexiVent™, in order to determine more directly the mechanical parameters of the respiratory system. In order to precisely monitor the change in respiratory function over the course of the treatment, whole-body plethysmography analyses (Emka Technologies, Paris, France) have been performed on the healthy control mice C57Black10, on the untreated mdx mice and on the mdx mice having been treated with BIO101. The advantages of this technique reside in the fact that it allows monitoring to be performed on an awake animal, freely moving in a hermetic enclosure, and that this is performed in a non-invasive manner. Consequently, the stress due to handling of the animals is reduced as it is possible to repeat the measurements over prolonged periods. Barometric plethysmography is therefore frequently used for measuring bronchial reactivity in small animals (Chong et al., 1998; Djuric et al., 1998; Hoffman et al., 1999). The pressure variations measured with respect to a reference chamber make it possible to define various respiratory parameters such as the peaks and times of inspiratory and expiratory pressure as well as a dimensionless quantity called Penh (enhanced Pause) which allows the bronchoconstriction to be evaluated. More specifically, the Penh, calculated from the pressure signal (Pb) in the chamber, is an important index to obtain, because the variations in Penh change in parallel with those of the respiratory resistance and it therefore represents a predictive parameter for changes in the resistive properties of the respiratory system (Hamelmann et al., 1997; Bergren, 2001; Onclinx et al., 2003). The following values have been calculated from the filtered Pb: the maximum variation in Pb during expiration (PEP: Peak Expiratory Pressure), the maximum change in Pb during inspiration (PIP: Peak Inspiratory Pressure) and the time interval (TR). The Penh value has then been calculated as follows: […] [Math. 1] where Pause=(TE−TR)/TE [Math. 2] • TE being the expiration time (Adler et al., 2004). Moreover, the peak inspiratory flow (PIF) and the peak expiratory flow (PEF), the relaxation time (RT) and the respiratory rate (BF) have also been measured and shown. The Penh value has been measured before the start of the treatment (D0), 30 days after the start of the treatment (D30) and 60 days after the treatment (D60). First, the entire cohort of mdx mice (n=24) were compared with healthy mice C57Black10 (n=12), before receiving the treatment. Awake mice were exposed to increasing doses of metacholine aerosols generated by a nebulizer containing 0 to 40 mg/mL of metacholine in PBS.

With `CC(C)(O)CC[C@@H](O)[C@](C)(O)[C@H]1CC[C@@]2(O)C3=CC(=O)[C@@H]4C[C@@H](O)[C@@H](O)C[C@]4(C)[C@H]3CC[C@]12C` [BIO101, 20-hydroxyecdysone] the “resistance of the airways (pulmonary resistance)” value ([1]; 60 days, metacholine 0 to 20 mg/mL, vs untreated mdx mice, p<0.0001) was “significantly lower resistance of the airways”, the pulmonary compliance ([1]; D60, metacholine 20 mg/mL, untreated mdx 0.017, healthy 0.031 (FIG. 8B)) was 0.029 mL/cmH2O and the pulmonary elastance ([1]; D60, metacholine 20 mg/mL, untreated mdx 34.8, healthy 62.8 as printed (FIG. 8C)) was 69.1 cmH2O/mL. For the same molecule, the “pulmonary compliance, change at increasing metacholine doses” value ([1]; two months, p<0.0001 (FIG. 7B)) was “significantly improved”, the “pulmonary elastance, change at increasing metacholine doses” value ([1]; two months, p<0.0001 (FIG. 7C)) was “significantly improved” and the relaxation time ([2]; 50 mg/kg/day oral, 30 days, compared with untreated mdx mice, p<0.05 (FIG. 3D)) was “clear improvement in relaxation time”. The “peak inspiratory flow (cited to FIG. 3B)” value ([2]; 50 mg/kg/day oral, 30 days, in comparison to D0) was “remain unchanged”, the respiratory rate ([2]; 50 mg/kg/day oral, 30 days, in comparison to D0 (FIG. 3E)) was “remain unchanged” and the “peak inspiratory flow (cited to FIG. 3C)” value ([2]; 50 mg/kg/day oral, 30 days, in particular equilibrium state or low metacholine dose, p<0.05) was “increase in peak inspiratory flow”. The peak expiratory flow ([2]; 50 mg/kg/day oral, 60 days) was “remain unchanged”, the relaxation time ([2]; 50 mg/kg/day oral, 60 days (FIG. 4D)) was “trend towards improved relaxation time” and the respiratory rate ([2]; 50 mg/kg/day oral, 60 days (FIG. 4E)) was “remain unchanged”. The peak inspiratory flow ([2]; 50 mg/kg/day oral, 60 days, p<0.05 (FIG. 4B)) was “significant improvement”, the “mean Penh value” ([2]; 50 mg/kg/day oral, D60, metacholine dose of 40 mg/mL, untreated mdx 4, healthy 1.04 (FIG. 6B)) was 1.87 and the “Penh in response to metacholine” value ([2]; 50 mg/kg/day oral, after 60 days of treatment, compared to untreated mdx mice, p<0.0001 (FIG. 4A)) was “significant reduction in the Penh”. The “Penh in response to metacholine” value ([2]; 50 mg/kg/day orally in drinking water, after 30 days of treatment, compared to mdx mice at D0, p<0.001 (FIG. 3A)) was “significant reduction in Penh”.
